Consider 5 compounds from patent US9062308B2, “Compositions and methods for treatment of tamoxifen resistant breast cancer” (The Johns Hopkins University, priority 2011, dated 2015).

The test system of experiment [1] is BT474 cells. Kind of experiment: Soft agar colony formation in BT474 cells. Type of experiment: cell-based. The conditions noted are these: 1 μM gefitinib and 1 μM TAM. How it is done: (§1) (2A) Immunoblot analysis of Phospho-EGFR (Y1068), EGFR, Phospho-MAPK, MAPK, Phospho-ERα (S118), ERα, and HOXB7 expression in MCF-7 cells treated long-term with either vehicle or 0.1 μM TAM (TMR1) or 1 μM TAM (TMR2). (2B) Immunoblot analysis of EGFR, Phospho-MAPK, MAPK and HOXB7 expression in MCF-7-TMR cells and BT474 transfected with either scrambled sequence siRNA or HOXB7-specific siRNA. (2C) Soft agar colony formation in BT474 cells and MCF-7-TMR cells transfected with either scrambled sequence siRNA or HOXB7-specific siRNA treated with Vehicle or 1 μM TAM.

Experiment [2] concerns MCF-7-TMR cells. Kind of experiment: Soft agar colony formation in MCF-7-TMR cells. Type of experiment: cell-based. The procedure: as §1
(§2) HOXB7 in the acquisition of anti-estrogen resistance. Because of the observation of a striking similarity in phenotype between prolonged endocrine therapy primed TAM-resistant models and our HOXB7 overexpressing cells, the hypothesis that HOXB7 is a mediator of anti-estrogen resistance was investigated. MCF-7 cell lines were derived, and exposed to either vehicle or TAM (0.1 μM or 1 μM) for over 12 months (designated MCF-7-TMR1 or MCF-7-TMR2 respectively).

Experiment [3] deals with MCF-7-B7 cells. Nature of the experiment: Soft agar colony formation by MCF-7-B7 cells. Type of experiment: cell-based. How it is done: (§3) FIG. 3 depicts evidence that HOXB7 promotes TAM resistance. (3A) Immunoblot analysis of Phospho-EGFR, EGFR, P-MAPK, MAPK and HOXB7 expression levels in MCF-7-Vec and MCF-7-HOXB7 cells. (3B) Tumor growth curve of MCF-7-HOXB7 cells implanted s.c. in athymic Swiss female mice and treated with either vehicle or TAM (83.3 μg/day), in the absence of an exogenous estrogen supplement. […] (3D) Semi quantitative RT-PCR analysis of mRNA expression levels of TGFα, HB-EGF and Amphiregulin in HOXB7 expressing MCF-7 cells and their vector controls (left); Amphiregulin or TGFα mRNA expression in MCF-7-vec and MCF-7-B7 cells treated with either scrambled sequence siRNA or ERα-specific siRNA (right) (3E) Diagram representing the HOXB7 binding sites in EGFR promoter region. MCF-7 cells were transfected with pcDNA3-Flag-HOXB7 and Vector plasmid, ChIP was performed by IP with either anti-Flag M2 antibody or control IgG. (3F) Luciferase activity of deletion/truncation constructs of the EGFR promoter, with (solid box) and without (slashed box) transfected HOXB7 plasmid, to map minimal region necessary for activation by HOXB7.

The subject of experiment [4] is EGFR, p44/42 MAPK, ARG and TGFα. Nature of the experiment: EGFR activity and EGFR ligand levels in MCF-7-B7 cells after ER downregulation. The format is cell-based. How it is done:
as §3

Experiment [5] relates to LTED cells. The conditions noted are these: MCF-7-LTED cells; cited from earlier work.
In experiment [6] the test system is ERα-positive breast cancer. The conditions noted are these: patients with acquired resistance who progress on TAM; cited from earlier work.
Experiment [7] relates to HOXB7 mRNA. Kind of experiment: Real time quantitative PCR analysis of HOXB7 mRNA levels. The format is cell-based. The procedure:
(4A) Real time quantitative PCR analysis of HOXB7 mRNA levels in MCF-7 cells. Cells were incubated in estrogen deprived condition for 72 hours [DMEM phenol red-free medium containing 5% Dextran charcoal stripped serum (DCC-FBS)]; the cells were then treated with 0.1-100 nM estrogen (E2); […]; Inset: Semi-quantitative RT-PCR analysis of HOXB7 mRNA following 1 uM TAM treatment for 24 hour. (4B) Real time quantitative PCR analysis of HOXB7. mRNA levels in MDA-MB-231 and MDA-MB-453 cells were transiently transfected with ERα expression plasmid and vector control for 48 hours. ERIN, a ERα overexpressed cell line, was used with MCF10A as a control. (4C) Immunoblot analysis of HOXB7 and ERα expression levels in transient transfectants of MDA-MB-231-ERα.
Real-time PCR of HOXB7 expression. HOXB7 gene expression was quantitated by Taqman real-time quantitative PCR in triplicate in 96-well plate using an ABI 7900HT (Applied Biosystems) using cDNA derived from our previously published cohort of tumor samples (Cancer research 62(3):827-834). The sequences of the HOXB7 PCR primer pairs and fluorogenic MGB probe (5′ to 3′), respectively, are: AAAACCTACCACTCGCGTGTTC (SEQ ID NO: 5), GGA CGG GAA GCA AGA AGC A (SEQ ID NO: 6), and VIC-CAA GCG CCT GGC TG (SEQ ID NO: 7).

The subject of experiment [8] is MCF-7-Vec cells. Nature of the experiment: TAM treatment in culture, apoptosis and cell viability, MCF-7-Vec cells. The format is cell-based. The conditions noted are these: MCF-7-Vec cells in culture.
In experiment [9] the test system is MCF-7-B7 cells. Nature of the experiment: TAM treatment in culture, apoptosis and cell viability, MCF-7-B7 cells. The following applies: MCF-7-B7 cells in culture. Type of experiment: cell-based.
Experiment [10] has as its system MCF-7-B7 xenografts. Kind of experiment: Xenograft analysis, tumor growth of MCF-7-B7 cells implanted s.c. in athymic mice. The format is in vivo. The following applies: MCF-7-B7 xenografts in immunodeficient mice; TAM 83.3 μg/day; no exogenous estrogen supplement. How it is done:
as §3
Xenograft Analysis. […] At necropsy, primary tumors, liver, lung and spleen were evaluated for the presence of macroscopic tumors. […]

Experiment [11] concerns EGFR, p44/42 MAPK and ERα phosphorylation. Nature of the experiment: EGFR signaling in estrogen deprived MCF-7-B7 cells treated with TAM. Type of experiment: cell-based. The text has this:
These observations indicate that under the treatment conditions, nongenomic ERα action occurred to activate EGFR signaling.

For experiment [12], the system named is EGFR, MAPK, ERα and HOXB7. Kind of experiment: Immunoblot analysis of MCF-7 cells treated long-term with TAM. The format is cell-based. The procedure: as §1, §2
Experiment [13] relates to TGFα and HB-EGF. Kind of experiment: TGFα and HB-EGF expression in MCF-10A-B7 cells under EGFR inhibition. Type of experiment: cell-based.

For the compound `COc1cc2ncnc(Nc3ccc(F)c(Cl)c3)c2cc1OCCCN1CCOCC1` [gefitinib], the “effect on TAM action, soft agar colony formation” value in experiment [1] was “dramatically converted TAM to a potent antagonist”; in [2] (MCF-7-TMR cells, 1 μM gefitinib and 1 μM TAM) it was “dramatically converted TAM to a potent antagonist”. The “re-sensitization to TAM treatment, soft agar colony formation” value in experiment [3] (1 μM gefitinib with TAM 1 μM) was “significantly re-sensitized them to TAM treatment”.
On to `C[C@]12CC[C@@H]3c4ccc(O)cc4C[C@@H](CCCCCCCCC[S+]([O-])CCCC(F)(F)C(F)(F)F)[C@H]3[C@@H]1CC[C@@H]2O` (stereo partly shown) [fulvestrant], for which the “EGFR and p44/42 MAPK activity” value in experiment [4] (HOXB7 overexpression (MCF-7-B7 cells)) was “modestly reduced increases in EGFR and p44/42 MAPK activity”. For the same compound, the “levels of the autocrine/paracrine EGFR ligands (ARG and TGFα)” value in experiment [4] (MCF-7-B7 cells) is reported as “significant reduction”. For the same compound, the “sensitivity of LTED cells” value in [5] is recorded as “sensitive”. Besides, in experiment [6], the patients who respond is recorded as 20%.
As to `C[C@]12CC[C@@H]3c4ccc(O)cc4CC[C@H]3[C@@H]1CC[C@@H]2O` [estradiol, 17β-estradiol], in experiment [7] (estradiol stimulation in estrogen-deprived growth conditions (5% charcoal stripped serum)), the HOXB7 expression entry was “significantly reduced”.
With `CC/C(=C(\c1ccccc1)c1ccc(OCCN(C)C)cc1)c1ccccc1` [TAM, tamoxifen], in experiment [2] (MCF-7-TMR1 cells (0.1 μM TAM for over 12 months), data not shown), the “resistance to TAM treatment by colony formation assay” value is reported as “significant resistance to TAM treatment”. Also, the “colony formation in soft agar in the presence of tamoxifen” value in experiment [3] (TAM 1 μM) is on record as “at frequencies similar to vehicle treated cells”. Also, in experiment [8], the “apoptosis and cell viability” value is “increased apoptosis and decreased cell viability”. The “sensitivity to TAM treatment (apoptosis, cell viability)” value in experiment [9] was “minimally sensitive”. Further, the “tumor growth response to TAM” value in experiment [10] was “failed to respond to the inhibitory effects of TAM”. Also, the “active EGFR, p44/42 MAPK activity and ERα phosphorylation” value in experiment [11] (MCF-7-B7 cells in estrogen deprived conditions, TAM for 24 hours, vs MCF-7-Vec cells) was “significantly higher levels of active forms of EGFR, increased p44/42 MAPK activity and ERα phosphorylation”. Moreover, the “phosphorylation of EGFR, p44 MAPK and ER” value in experiment [11] (estrogen deprived MCF-7-B7 cells, 1 μM TAM for 0-30 minutes, data not shown) is “elevated phosphorylation of EGFR, activation of p44 MAPK, and ER phosphorylation at Serine 118”. In experiment [7] (MCF-7 and T47D cells, tamoxifen in medium containing 10% FBS), the “HOXB7 mRNA levels” value was “increased”. Further, in experiment [7] (tamoxifen added to estradiol), the “downregulation of HOXB7 expression by estradiol” value is recorded as “abrogated”. Moreover, the HOXB7 expression entry in experiment [12] (MCF-7-TMR cells (long-term TAM)) is given as “upregulated”. Besides, in [12] (MCF-7 cells, 0.1 μM TAM, 0, 2, 4, 6 months, data not shown), the “levels of HOXB7 expression over time” value was “progressively increasing levels of HOXB7 expression”. Also, the “expression of EGFR, activated MAPK and ERα, total ERα” value in experiment [12] (MCF-7 cells, TAM 0.1 μM or 1 μM for over 12 months) was “elevated expression of EGFR and activated MAPK and ERα, but no significant change of total ERα”. Besides, the “sensitivity of LTED cells” value in experiment [5] is on record as “refractory”.
In the case of `COc1cc2ncnc(Nc3cccc(Cl)c3)c2cc1OC` [AG1478], the “elevated expression of TGFα and HB-EGF” value in experiment [13] was “significantly abrogated”.
